For one assay, the target named is T1, rat mGlu6 receptor (Rattus norvegicus, UniProt P35349).
T1 construct: host or cells: CHO-dhfr- cells
The experiment in a line: [3H]Compound A binding to membranes from CHO-dhfr− cells expressing the rat mGlu6 receptor. The settings on record: 20 nM [3H]Compound A, 40 μg membranes; Compound 135 as blanc. As for the experimental part:
Confluent cells were washed in ice-cold phosphate-buffered saline and stored at −20° C. until membrane preparation. After thawing, cells were suspended in 50 mM Tris-HCl, pH 7.4 and collected through centrifugation for 10 min at 23,500 g at 4° C. The cells were lysed in 10 mM hypotonic Tris-HCl, pH 7.4. After recentrifugation for 20 min at 30,000 g at 4° C., the pellet was homogenized with an Ultra Turrax homogenizer in 50 mM Tris-HCl, pH 7.4. Protein concentrations were measured by the Bio-Rad protein assay using bovine serum albumin as standard.
After thawing, the membranes were homogenized using an Ultra Turrax homogenizer and suspended in ice-cold binding buffer containing 50 mM Tris-HCl (pH 7.4), 1.2 mM MgCl2, 2 mM CaCl2. For [^3H]Compound A binding, 20 to 160 μg membrane protein and a final concentration of 20 nM [^3H]Compound A was used. As indicated in the results section, different blancs were used to define non-specific binding. Incubation time and temperature as well as filtration were as described for rat mGlu1a receptor CHO-dhfr^− membranes. Expression of rat mGlu2, -3, -5 and mGlu6 receptors was confirmed by specific binding of [^3H]LY341495 (mGlu2, -3 and -6) or [^3H]MPEP (mGlu5). For [^3H]LY341495 binding, 1 nM (mGlu2 and mGlu3) or 10 nM (mGlu6) [^3H]LY341495 was used. […] Assay mixtures were incubated for 30 min (mGlu2 and mGlu3) or 60 min (mGlu6) at 4° C. […]

The target in a further assay is mGlu1 receptor (Rattus norvegicus, UniProt P23385). Briefly: [3H]Compound A binding to rat brain membranes (cortex, hippocampus, striatum, cerebellum). As for the experimental part:
Tissue preparation. Male Wistar rats (˜200 g) were sacrificed by decapitation. The brains were rapidly removed and cortex, hippocampus, striatum and cerebellum were immediately dissected. The fresh tissue was homogenized with an Ultra Turrax in 20 volumes of 50 mM Tris-HCl, pH 7.4 and tissue was centrifuged at 23,500 g for 10 min. After homogenisation using a DUAL homogeniser, membranes were washed twice by centrifugation at 23,500 g for 10 min. The final pellet was suspended in 10 volumes of 50 mM Tris-HCl, pH 7.4 and frozen at −80° C.
In vitro binding assay. After thawing, membranes from rat cortex, cerebellum, striatum and hippocampus were rehomogenized using a DUAL and suspended in ice-cold binding buffer containing 50 mM Tris-HCl, 1.2 mM MgCl2, 2 mM CaCl2, pH 7.4. The binding assay was carried out in a total volume of 0.5 ml containing 2.5 nM [^3H]Compound A and a membrane aliquot corresponding to 40 μg for cerebellar membranes, 60 μg for hippocampal membranes, 80 μg for striatal membranes or 150 μg for cortical membranes. […] After incubation for 30 min at 4° C., the labelled membranes were washed and harvested by rapid vacuum filtration over Whatman GF/C glass-fibre filters using a 40-well filtration manifold and radioactivity collected on the filters was counted as above.
Data analysis was performed using the GraphPad Prism program (GraphPad Prism Software, Inc., San Diego, Calif.). Saturation binding experiments were analysed using a non-linear regression analysis. Inhibition curves were fitted using non-linear regression analysis fitting the one-site competition equation: Y=Bottom+((Top−Bottom)/1+10^X-LogIC50). Ki values were calculated using the Cheng-Prusoff equation: Ki=IC50/[1+([C]/KD)] where C is the concentration of radioligand and KD is the dissociation constant of the radioligand (Cheng and Prusoff, Biochem. Pharmacol. 22, 3099-3108, 1973). The observed on (kob) and off (koff) rate were calculated from association-dissociation curves using the one-phase-exponential association and decay equations in the Prism program, respectively. kon was calculated by subtracting koff from kob and dividing by the radioligand concentration. The two-tailed Student's t-test was used for statistical evaluation of the binding data: * p<0.05, ** p<0.01 and *** p<0.001. The Dunnett's t-test following a 2-way analysis of variance (with as factors compound concentration and experiment) were used to analyse the data from the IP experiments.

Setting [1] is: membranes from rat cerebellum, mean ± SD, 3 experiments.
Where [2] appears, read: membranes from rat cortex, mean ± SD, 3 experiments.
Setting [3] is: membranes from rat hippocampus, mean ± SD, 3 experiments.
The mark [4] stands for this setting: membranes from rat striatum, mean ± SD, 3 experiments.

T1 sequence (P35349 24-871): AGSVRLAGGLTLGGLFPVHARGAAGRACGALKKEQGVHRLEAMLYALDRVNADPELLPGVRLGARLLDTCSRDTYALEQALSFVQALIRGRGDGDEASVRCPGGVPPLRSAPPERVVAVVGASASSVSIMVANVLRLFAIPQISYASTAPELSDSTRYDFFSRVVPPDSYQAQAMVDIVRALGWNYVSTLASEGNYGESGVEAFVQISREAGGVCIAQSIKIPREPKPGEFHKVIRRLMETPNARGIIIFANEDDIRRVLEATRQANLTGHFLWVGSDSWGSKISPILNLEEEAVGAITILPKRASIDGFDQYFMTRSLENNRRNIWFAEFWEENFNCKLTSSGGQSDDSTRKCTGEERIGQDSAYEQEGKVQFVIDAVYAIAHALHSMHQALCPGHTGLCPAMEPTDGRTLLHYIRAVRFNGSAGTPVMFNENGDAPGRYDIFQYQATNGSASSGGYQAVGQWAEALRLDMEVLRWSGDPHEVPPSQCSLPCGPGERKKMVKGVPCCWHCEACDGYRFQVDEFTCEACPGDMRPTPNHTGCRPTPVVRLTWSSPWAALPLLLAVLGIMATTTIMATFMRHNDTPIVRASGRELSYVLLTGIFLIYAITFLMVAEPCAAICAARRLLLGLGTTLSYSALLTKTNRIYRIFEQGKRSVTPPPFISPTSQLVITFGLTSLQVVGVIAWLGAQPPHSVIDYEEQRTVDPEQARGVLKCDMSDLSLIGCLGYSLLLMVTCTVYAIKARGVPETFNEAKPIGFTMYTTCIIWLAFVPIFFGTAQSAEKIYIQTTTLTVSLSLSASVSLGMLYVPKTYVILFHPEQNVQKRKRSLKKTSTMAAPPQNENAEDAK

Broadly, the Kd is the constant that tells how readily two partners part at equilibrium. The low end stands for tighter binding, the high end for weaker binding. `[3H]c1ccc(CC(=O)c2ccc3nc4c(cc3c2)CCCO4)cc1` [[^3H]Compound A]: on rat mGlu6 receptor, the “SB (fmoles/mg protein), mGlu6” value came out at 0 fmoles/mg protein. Besides, the Kd is approximately 1000 pM at mGlu1 receptor (all structures (cortex, hippocampus, striatum, cerebellum)); 990 ± 360 pM on mGlu1 receptor (setting [1]); 1040 ± 400 pM on mGlu1 receptor (setting [2]); 720 ± 220 pM on mGlu1 receptor (setting [3]); 840 ± 230 pM on mGlu1 receptor (setting [4]). Also, the “non-specific binding compared to total binding” value is reported as 10% at mGlu1 receptor (cerebellum), 25% on mGlu1 receptor (cortex), 30% on mGlu1 receptor (hippocampus) and 25% on mGlu1 receptor (striatum). For the same compound, the “number of sites labelled as % of the number found in the cerebellum” value on mGlu1 receptor (cortex) is 11%; at mGlu1 receptor (hippocampus) it was “about 16%”; on mGlu1 receptor (striatum), “about 16%”. Moreover, the Bmax on mGlu1 receptor (setting [1]) was 4302 ± 2042 fmoles/mg protein; at mGlu1 receptor (setting [2]), 471 ± 68 fmoles/mg protein; at mGlu1 receptor (setting [3]), 688 ± 125 fmoles/mg protein; at mGlu1 receptor (setting [4]), 741 ± 48 fmoles/mg protein.

These data come from patent US7517517B2 (Janssen Pharmaceutica N.V., priority 2002, dated 2009).
